One block for each compound: values may come before it.
Experiments:
[1] = target: T1, cholesterol ester transfer protein (CETP) (Homo sapiens, UniProt P11597); assay: CETP inhibition test: transfer of 3H-cholesterol ester from human HD lipoproteins to biotinylated LD lipoproteins (SPA); type: biochemical; conditions: human plasma CETP, 18 h, 37° C.
T1 construct: CETP is obtained from human plasma in partially purified form; from tissue; host or cells: human plasma
T1 sequence (P11597 18-493): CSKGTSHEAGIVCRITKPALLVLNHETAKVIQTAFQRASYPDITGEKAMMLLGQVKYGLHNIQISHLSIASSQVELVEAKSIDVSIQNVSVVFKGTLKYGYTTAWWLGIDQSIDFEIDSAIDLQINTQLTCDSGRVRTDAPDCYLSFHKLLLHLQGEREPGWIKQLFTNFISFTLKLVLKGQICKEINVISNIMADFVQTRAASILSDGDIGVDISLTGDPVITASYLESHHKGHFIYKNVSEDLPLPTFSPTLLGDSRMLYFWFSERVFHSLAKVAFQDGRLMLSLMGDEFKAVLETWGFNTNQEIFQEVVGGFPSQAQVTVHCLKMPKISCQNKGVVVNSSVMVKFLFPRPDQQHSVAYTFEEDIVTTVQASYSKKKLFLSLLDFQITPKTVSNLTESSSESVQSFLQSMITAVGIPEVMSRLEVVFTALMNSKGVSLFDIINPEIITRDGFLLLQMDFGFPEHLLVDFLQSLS
Procedure: CETP is obtained from human plasma in partially purified form by differential centrifugation and column chromatography and used for the test. To this end, human plasma is adjusted to a density of 1.21 g per ml using NaBr and centrifuged at 4° C. for 18 h at 50,000 rpm. The bottom fraction (d>1.21 g/ml) is applied to a Sephadex®phenyl-sepharose 4B (Pharmacia) column, washed with 0.15 M NaCl/0.001 M trisHCl pH 7.4 and then eluted with distilled water. The CETP-active fractions are pooled, dialysed against 50 mM Na acetate pH 4.5 and applied to a CM-Sepharose® (Pharmacia) column. The column is then eluted using a linear gradient (0-1 M NaCl). The pooled CETP fractions are dialysed against 10 mM trisHCl pH 7.4 and then further purified by chromatography on a Mono Q® column (Pharmacia).
50 ml of fresh human EDTA plasma are adjusted to a density of 1.12 using NaBr and centrifuged at 50,000 rpm for 18 h at 4° C. in a Ty 65 rotor. The upper phase is used to obtain cold LDL. The lower phase is dialysed against 3×4 l of PDB buffer (10 mM tris/HCl pH 7.4, […] NaCl, 1 mM EDTA, 0.02% NaN3). 20 μl of ^3 H-cholesterol (Dupont NET-725; 1 μC/μl dissolved in ethanol) are then added per 10 ml of retentate volume and the mixture is incubated under N2 at 37° C. for 72 h.
The mixture is then adjusted to the density 1.21 using NaBr and centrifuged at 20° C. for 18 h at 50,000 rpm in the Ty 65 rotor. The upper phase is recovered and the lipoprotein fractions are purified by gradient centrifugation. To this end, the isolated, labelled lipoprotein fraction is adjusted to a density of 1.26 using NaBr. Each 4 ml of this solution are covered with a layer of 4 ml of a solution of density 1.21 and 4.5 ml of a solution of 1.063 (density solutions from PDB buffer and NaBr) in centrifuge tubes (SW 40 rotor) and then centrifuged in the SW 40 rotor for 24 h at 38,000 rpm and 20° C. The intermediate layer lying between the densities 1.063 and 1.21 and containing the labelled HDL is dialysed at 4° C. against 3×100 volumes of PDB buffer.
The retentate contains radiolabelled ^3 H-CE-HDL which, adjusted to about 5×10^6 cmp per ml, is used for the test.
To test the CETP activity, the transfer of ^3 H-cholesterol ester from human HD lipoproteins to biotinylated LD lipoproteins is measured.
The reaction is ended by addition of streptavidin-SPA®beads (Amersham) and the transferred radioactivity is determined directly in a liquid scintillation counter.
In the test mixture, 10 μl of HDL-^3 H-cholesterol ester (~50,000 cpm) are incubated at 37° C. for 18 h with 10 μl of biotin-LDL (Amersham) in 50 mM Hepes/0.15 M NaCl/0.1% bovine serum albumin/0.05% NaN3 pH 7.4 with 10 μl of CETP (1 mg/ml) and 3 μl of solution of the substance to be tested (dissolved in 10% DMSO/1% RSA). 200 μl of the SPA-streptavidin bead solution (TRKQ 7005) are then added, the mixture is incubated further for 1 h with shaking and then measured in the scintillation counter. As controls, corresponding incubations with 10 μl of buffer, 10 μl of CETP at 4° C. and 10 μl of CETP at 37° C. are used.
The activity transferred into the control mixtures with CETP at 37° C. is rated as 100% transfer. The substance concentration at which this transfer is reduced by half is indicated as the IC50 value.

HDL cholesterol = assay: In vivo activity: oral action on lipoproteins and triglycerides in hamsters (HDL rise); set-up: species or system Syrian golden hamsters; conditions: dose 2 × 3 mg/kg, up to 24 hours
Procedure: In experiments to determine the oral action on lipoproteins and triglycerides, test substance dissolved in DMSO and 0.5% Tylose suspended by means of a stomach tube are administered orally to Syrian golden hamsters from in-house breeding. To determine the CETP activity, blood (about 250 μl) is taken by retro-orbital puncture before the start of the experiment. The test substances are then administered orally by means of a stomach tube. The control animals receive identical volumes of solvents without test substance. The feed is then withdrawn from the animals and blood is taken at various times--up to 24 hours after substance administration--by puncture of the retro-orbital venous plexus. Clotting is ended by incubation at 4° C. overnight, then centrifugation at 6000×g is carried out for 10 minutes. In the serum thus obtained, the content of cholesterol and triglycerides is determined with the aid of modified commercially available enzyme tests (cholesterol enzymatic 14366 Merck, triglycerides 14364 Merck). Serum is suitably diluted using physiological saline solution.
100 μl of serum dilution are mixed with 100 μl of […] in 96-hole plates and incubated at room temperature for 10 minutes. The optical density is then determined at a wavelength of 492 nm using an automatic plate-reading apparatus. The triglyceride or cholesterol concentration contained in the samples is determined with the aid of a standard curve measured in parallel.
The determination of the content of HDL cholesterol is carried out according to the manufacturer's instructions after precipitation of the ApoB-containing lipoproteins by means of a reagent mixture (Sigma 352-4 HDL cholesterol reagent).

[2] = test system: lipoproteins and triglycerides; assay: In vivo activity in transgenic hCETP mice (lipoproteins and triglycerides); conditions: 400 ppm in the feed, one week
Procedure: Transgenic mice from in-house breeding (Dinchuck, Hart, Gonzalez, Karmann, Schmidt, Wirak; BBA (1995), 1295, 301) were administered the substances to be tested in the feed. Before the start of the experiment, blood was taken retro-orbitally from the mice in order to determine cholesterol and triglycerides in the serum. The serum was obtained as described above for hamsters by incubation at 4° C. overnight and subsequent centrifugation at 6000×g. After one week, blood was again taken from the mice in order to determine lipoproteins and triglycerides. The change in the parameters measured is expressed as a percentage change compared with the starting value.

CETP = assay: Ex vivo activity: CETP activity in serum of treated hamsters (modified CETP test); set-up: species or system Syrian golden hamsters; conditions: for % Inhibition at 30 mg/kg: ex vivo CETP activity in hamster serum; for ED50 values for ex vivo activity: hamster serum, up to 24 hours after administration
Procedure: Syrian golden hamsters from in-house breeding are anaesthetized after fasting for 24 hours (0.8 mg/kg of atropine, 0.8 mg/kg of Ketavet® s.c., 30'later 50 mg/kg of Nembutal i.p.). The jugular vein is then exposed and cannulated. The test substance is dissolved in a suitable solvent (as a rule Adalat placebo solution: 60 g of glycerol, 100 ml of H2 O, PEG-400 to 1000 ml) and administered to the animals via a PE catheter inserted in the jugular vein. The control animals receive the same volume of solvent without test substance. The vein is then tied off and the wound is closed. The administration of the test substances can also be carried out p.o., by orally administering the substances dissolved in DMSO and suspended in 0.5% Tylose by means of a stomach tube. The control animals receive identical volumes of solvent without test substance.
After various times--up to 24 hours after administration--blood (about 250 μl) is taken from the animals by puncture of the retro-orbital venous plexus. Clotting is ended by incubation at 4° C. overnight, then centrifugation is carried out at 6000×g for 10 minutes. In the serum thus obtained, CETP activity is determined by the modified CETP test. As for the CETP test described above, the transfer of ^3 H-cholesterol ester from HD lipoproteins to biotinylated LD lipoproteins is measured.
The reaction is ended by addition of Streptavidin-SPA®beads (Amersham) and the transferred radioactivity is determined directly in the liquid scintillation counter.
The test mixture is carried out as described under "CETP test". For the testing of the serum, only 10 μl of CETP are replaced by 10 μl of the corresponding serum samples. As controls, corresponding incubations with sera of untreated animals are used.
The activity transferred in the control mixtures with control sera is rated as 100% transfer. The substance concentration at which this transfer is reduced to a half is indicated as the ED50 value.

SMILES: CC1Cc2nc(C3CCCC3)c(C(F)c3ccc(C(F)(F)F)cc3)c(-c3ccc(F)cc3)c2C(O)C1 (single isomer, unassigned) [Example 76]
IC50 [1]: 6 nM | % HDL rise (HDL cholesterol): +15.81% | HDL (percentage change compared with the starting value) [2]: +31.25% | LDL (percentage change compared with the starting value) [2]: -15.3% | Triglycerides (percentage change compared with the starting value) [2]: -11.7%

SMILES: CC1(C)Cc2nc(C3CCCC3)c(C(F)c3ccc(C(F)(F)F)cc3)c(-c3ccc(F)cc3)c2C(O)C1 (single isomer, unassigned) [Example 91]
% HDL rise (HDL cholesterol): +12.58%

SMILES: CC1(C)Cc2nc(C3CCCC3)c(C(F)c3ccc(Cl)c(C(F)(F)F)c3)c(-c3ccc(F)cc3)c2C(O)C1 (single isomer, unassigned) [Example 170]
% Inhibition at 30 mg/kg (CETP): 60.1% | ED50 values for ex vivo activity (CETP): < 30 mg/kg

SMILES: CC1Cc2nc(C3CCCC3)c(C(F)c3ccc(C(F)(F)F)cc3F)c(-c3ccc(F)cc3)c2C(O)C1 (single isomer, unassigned) [Example 181]
% Inhibition at 30 mg/kg (CETP): 46.4% | ED50 values for ex vivo activity (CETP): > 30 mg/kg

SMILES: CC1(C)Cc2nc(C3CCCC3)c(C(F)c3ccc4ccccc4c3)c(-c3ccc(F)cc3)c2C(O)C1 (single isomer, unassigned) [Example 184]
% Inhibition at 30 mg/kg (CETP): 53.5% | ED50 values for ex vivo activity (CETP): < 30 mg/kg

SMILES: OCC1Cc2nc(C3CCCC3)c(C(F)c3ccc(C(F)(F)F)cc3)c(-c3ccc(F)cc3)c2C(O)C1 (single isomer, unassigned) [Example 211]
% HDL rise (HDL cholesterol): +7.54%

SMILES: CC1(C)Cc2nc(C3CCCC3)c(C(F)c3ccc4c(c3)OC(F)(F)O4)c(-c3ccc(F)cc3)c2C(O)C1 (single isomer, unassigned) [Example 244]
IC50 [1]: 60 nM

SMILES: CC1Cc2nc(C(C)C)c(C(F)c3ccc(C(F)(F)F)cc3)c(-c3ccc(F)cc3)c2C(O)C1 (centres unmarked) [Example 115]
% Inhibition at 30 mg/kg (CETP): 61.9% | ED50 values for ex vivo activity (CETP): < 30 mg/kg

SMILES: CC1Cc2nc(C(C)C)c(C(F)c3ccc(C(F)(F)F)cc3)c(-c3ccc(F)cc3)c2C(O)C1 (centres unmarked) [Example 117]
% Inhibition at 30 mg/kg (CETP): 86.0% | ED50 values for ex vivo activity (CETP): < 30 mg/kg

SMILES: CC1(C)Cc2nc(C3CCCC3)c(C(N=[N+]=[N-])c3ccc(C(F)(F)F)cc3)c(-c3ccc(F)cc3)c2C(O)C1 (centres unmarked) [Example 195]
IC50 [1]: 750 nM

SMILES: OC1CC(C2CC2)Cc2nc(C3CCCC3)c(C(F)c3ccc(C(F)(F)F)cc3)c(-c3ccc(F)cc3)c21 (centres unmarked) [Example 209]
% HDL rise (HDL cholesterol): +25.94%

More lines, main results first:

IC50 [1]: 60 nM
SMILES: CC(C)c1nc2c(c(-c3ccc(F)cc3)c1C(F)c1ccc(C(F)(F)F)cc1)C(O)CC(C)(C)C2 (single isomer, unassigned) [Example 90]

IC50 [1]: 800 nM
SMILES: CC(C)c1nc2c(c(-c3ccc(F)cc3)c1C(F)c1ccc(C(F)(F)F)cc1)C(O)CC1CC21 (single isomer, unassigned) [Example 237]
% HDL rise (HDL cholesterol): +21.03%

IC50 [1]: 30 nM
SMILES: CC(C)c1nc2c(c(-c3ccc(F)cc3)c1C(F)c1ccc(C(F)(F)F)cc1)C(O)CC1(CCCC1)C2 (single isomer, unassigned) [Example 291]

IC50 [1]: 0.2 nM
SMILES: OC1CC2(CCCC2)Cc2nc(C3CCCC3)c(C(F)c3ccc(C(F)(F)F)cc3)c(-c3ccc(F)cc3)c21 (single isomer, unassigned) [Example 300]

IC50 [1]: 60 nM
SMILES: CC(C)c1nc2c(c(-c3ccc(F)cc3)c1C(F)c1ccc(C(F)(F)F)cc1)C(O)CC1(CC1)C2 (single isomer, unassigned) [Example 312]

IC50 [1]: 0.2 nM
SMILES: CC(C)c1nc2c(c(-c3ccc(F)cc3)c1C(F)c1ccc(C(F)(F)F)cc1)C(O)CC1(CC1)C2 (single isomer, unassigned) [Example 313]

IC50 [1]: 50 nM
SMILES: OC1CC2(CC2)Cc2nc(C3CCCC3)c(C(F)c3ccc(C(F)(F)F)cc3)c(-c3ccc(F)cc3)c21 (single isomer, unassigned) [Example 319]

IC50 [1]: 1.5 nM
SMILES: OC1CC2(CCC2)Cc2nc(C3CCCC3)c(C(F)c3ccc(C(F)(F)F)cc3)c(-c3ccc(F)cc3)c21 (centres unmarked) [Example 329]
